Results reported in patent US10329242B2, “Process for purifying long chain amino acids” (VITAWORKS IP, LLC, priority 2017, dated 2019).
Counter-ions that a name gives are not always drawn.

Experiments:
[1] = Solubility of bisulfate salts in 1 M solution of sulfuric acid; assay type: physicochemical; settings: for solubility: temperature below 40° C.; for solubility change with temperature: temperature increased from 60° C. to 80° C. and above
[2] = Solubility in water and aqueous solution of acetic acid; assay type: physicochemical; settings: aqueous solution of 10% (wt/wt) acetic acid at 80° C.

In the case of `NCCCCCCCCCCCC(=O)O` [bisulfate salt of 12-aminolauric acid, 12-aminolauric acid], the solubility [1] is reported as “negligible solubility” and the “solubility change with temperature” value [1] is reported as “drastically increased”.
In the case of `NCCCCCCCCCCC(=O)O` [11-aminoundecanoic acid], the solubility [1] is reported as “negligible solubility”, the “solubility change with temperature” value [1] is reported as “drastically increased” and the solubility [2] is reported as “up to 45 % (wt/wt)”.
